Test results published in patent US10232023B2, “Methods for treatment of and prophylaxis against inflammatory disorders” (THE UNIVERSITY OF UTAH RESEARCH FOUNDATION, priority 2013, dated 2019).
Entries after “also recorded” stand apart in the source; their conditions may differ.

What was measured:
Mature ewe PMNs = experiment: NET formation by sheep PMNs; format: cell-based
Description: Referring to FIGS. 13A and 13B, PMNs from preterm lamb cord blood and from mature ewes were isolated.

[1] = system: human PMNs incubated with dengue virus; experiment: Dengue virus-induced NET formation by human PMNs; format: cell-based; conditions: pretreatment 1 nM, 1 hour; dengue virus 0.05 MOI
Description: Mock incubation using dengue virus media without infection served as a control. Dengue virus induced NET formation by PMNs from human adults.
Primary PMNs isolated from healthy adults (2×10^6 cells/mL) were incubated with mock infection buffer or live dengue virus (MOI 0.05), as for the live cell imaging discussed above. After a 1 hour incubation, the infected PMNs were fixed with 2% p-FA for 10 minutes prior to incubation with fluorescently-labeled, cell permeable and cell impermeable DNA dyes, and imaged as for live cell imaging using confocal microscopy.

[2] = system: Outbred Swiss-Webster mice, E. coli peritonitis; experiment: Murine E. coli peritonitis: peritoneal fluid and membrane analysis; format: in vivo, mouse
Description: Outbred Swiss-Webster mice were injected intraperitoneally with 4.5×10^7 colony-forming units (cfu) of E. coli±nNIF, CRISPP, or scrambled control peptide (SCR) (10 mg/kg, IP injection) one hour prior to E. coli infection. At the 3 hour time point after infection, 3 mice were sacrificed and the peritoneal fluid and peritoneal tissue were collected and analyzed for leukocyte accumulation, bacteriology, and in vivo NET formation. […] See Fuchs et al., J Cell Biol, 2007, 176: 231-241. The number of E. coli cfu/mL of peritoneal fluid in CRISPP pretreated mice was also determined compared to SCR mice (see FIG. 17C).
Animals were treated with CRISPP (10 mg/kg), nNIF (10 mg/kg), or SCR (10 mg/kg) by i.p. injection 1 hour prior to infection (E. coli, 4.5×10^7 cfu/mouse, i.p. injection) or stimulation (LPS, 25 mg/kg, i.p. injection (SIGMA)). Control mice were injected with saline alone. The mice were sacrificed in a CO2 chamber 3 hours post-infection/stimulation with the peritoneal contents harvested and analyzed. Briefly, the skin of the abdomen was cut open in the midline after thorough disinfection and without injuring the muscle. The peritoneal cavity was lavaged with sterile saline solution ([…]) and analyzed for in vivo NET formation, bacteriology, and leukocyte accumulation. NETs in the peritoneal fluid were qualitatively and quantitatively analyzed using live cell imaging with confocal microscopy and histone release assays. NETs on the inner surface of the peritoneal membrane were assessed quantitatively using live cell imaging followed by standardized grid analysis of 5 randomly selected high power visual fields per tissue sample (IMAGE-J software, NIH). Peritoneal bacterial colony forming units (cfu) counts were quantified by permeabilizing all recovered leukocytes with 0.1% Triton-X 100 for 10 minutes and performing serial dilutions and bacterial cultures on 5% sheep blood agar plates (HARDY DIAGNOSTICS). After a 24-hour incubation, bacterial counts were determined. Total leukocyte counts in the peritoneal lavage were determined in Neubauer chambers using an optical microscope after dilution in Turk's solution (2% acetic acid). Differential leukocyte analysis was performed using a 60× oil immersion objective to assess morphology of cyto-centrifuged cells stained with May-Grunwald-Giemsa dye.

PMA-stimulated PMNs = experiment: Nuclear decondensation (nuclear area) assay; format: cell-based, human; conditions: CRISPP 1 nM, SCR 1 nM, Sivelestat 200 nM; PMA 20 nM, 2 hours; vs PMA alone
Description: Using techniques modified from Papayannopoulos et al., J Cell Biol, 2010, 191: 677-691, nuclear area assays were used for PMA-stimulated PMNs as a surrogate for NET formation. PMNs were stimulated with PMA (20 nM) for 2 hours and then visualized via live cell imaging with a cell permeable DNA dye. Images from 5 randomly selected high power fields were captured and the nuclear area of all PMNs on each visual field was quantitated using IMAGEJ software. Nuclear areas were compared for PMNs stimulated with PMA with PMNs pre-incubated with CRISPP (1 nM), SCR (1 nM), or the NE inhibitor Sivelestat (200 nM). […] Next, immunocytochemical experiments designed to see whether CRISPP is taken up by human PMNs were performed. The CRISPP-F and SCR-F peptides and FLAG-tag specific primary antibodies were used to assess cellular location. […] CRISPP can inhibit nuclear chromatin decondensation, which is consistent with the selective inhibition of NET formation by CRISPP and nNIF. This process may involve inhibition of NE activity.
PMNs were isolated and resuspended to 2×10^6 cells/mL in M-199 media. […] 5 randomly selected high power visual fields per sample were captured via confocal microscopy and analyzed for nuclear area using the cell-permeable, fluorescent DNA dye SYTO Green. The nuclear pixel areas of >100 individual cells per high power field were determined using IMAGE-J software (NIH).

human PMNs and platelets = experiment: Platelet/PMN aggregation; format: cell-based; conditions: LPS-stimulated PMNs mixed with thrombin-stimulated platelets
Description: Using protocols modified from Saboor et al., […] Med Sci, 2013, 20: 62-66, human PMNs (2×10^6 cells/mL) were isolated and incubated with […] or SCR (0.1-10 ng/ml) for 1 hour prior to addition of freshly isolated human platelet at a ratio of 100:1 for another 15 minute incubation. After this period, the cells (PMNs and platelets) were stimulated with thrombin (0.1 IU/mL) or control M-199 media for 1 hour. The cells were stained for 20 minutes with the following primary monoclonal antibodies: PE-conjugated CD41 and FITC-conjugated CD16. Isotype and fluorochrome matched control antibodies were used. Flow cytometry was performed using BECTON-DICKINSON FACSCAN and CELLQUEST software.

[3] = 10 mg/kg IP pretreatment, vs SCR control

Question: What does the source list for “Cancer-Associated SCM-Recognition, Immune Defense Suppression, and Serine Protease Protection Peptide [CRISPP, nNIF-related peptide (nNRP)]”?
Answer: NET formation by LPS-stimulated sheep PMNs (Mature ewe PMNs; mature ewe PMNs, pre-treatment 1 hour, LPS 100 ng/mL): inhibited NET formation in a dose-dependent manner; NET formation by PMA-stimulated sheep PMNs (Mature ewe PMNs; sheep PMNs, PMA): inhibited NET formation; NET formation induced by dengue virus [1]: completely blocked NET formation; also recorded: inhibited NET formation; Peritoneal PMN accumulation ([2]; 10 mg/kg IP one hour prior to E. coli, 3 hours after infection, vs E. coli alone or SCR): significant increase; Peritoneal fluid bacterial concentration (E. coli cfu/mL) ([2]; 10 mg/kg IP one hour prior to E. coli, 3 hours after infection, vs SCR): significant increase; NET formation by histone H3 release assay of the peritoneal fluid [2, 3]: significant quantitative decrease; NET formation in the peritoneal fluid (live cell imaging) [2, 3]: qualitative decrease; Peritoneal membrane-associated NET formation ([2]; freshly resected peritoneal membrane, live cell imaging, standardized grid): qualitative and quantitative decrease; Nuclear area of PMA-stimulated PMNs (PMA-stimulated PMNs): significant decrease in nuclear area; Platelet/PMN association (flow cytometry) (human PMNs and platelets): did not alter
